Literature values, collected in publication PMC7199283 (Antiviral research, 2020).

Tested on: HBV
Conditions: ref Hu et al., 2013

CC(C)c1ccc(O)c(=O)c(O)c1 [β-thujaplicinol]
accumulation of RNA:DNA heteroduplexes within HBV capsids: dose-dependent accumulation of RNA:DNA heteroduplexes
